According to a compilation of properties of binary mixtures (doi:10.1021/je401124t):

Test: xn = mol fraction of the nth substance listed
Details: 101 kPa

COP(=O)([O-])OC.Cn1cc[n+](C)c1 + CCO
viscosity [mPa·s]
Details	x2 = 0	x2 = 0.0999	x2 = 0.2028	x2 = 0.3009	x2 = 0.4074	x2 = 0.5028	x2 = 0.6	x2 = 0.6992	x2 = 0.7999	x2 = 0.9
293.15 K	416	339	246	134.3	77.7	–	–	13.76	–	–
298.15 K	291	238	182.5	98.7	–	30.76	–	11.97	5.6	2.824
303.15 K	210	–	138.5	78.5	48.7	25.78	18.08	10.5	–	2.567
308.15 K	155.6	130.7	106.8	62.9	39.62	–	15.59	–	4.509	2.341
313.15 K	119.2	100.8	84	51	32.73	18.94	13.59	8.27	4.077	2.143
318.15 K	–	79.1	67	41.98	27.44	16.42	11.88	7.41	–	1.97
323.15 K	74.2	–	54.4	35.06	23.3	14.35	10.51	6.68	3.378	–

COP(=O)([O-])OC.Cn1cc[n+](C)c1 + CCCO
viscosity [mPa·s]
Details	x2 = 0	x2 = 0.098	x2 = 0.1993	x2 = 0.3018	x2 = 0.4	x2 = 0.5002	x2 = 0.5996	x2 = 0.6995	x2 = 0.799	x2 = 0.8998
293.15 K	416	296	211	–	85.2	50.8	29.52	17.53	9.79	4.441
298.15 K	–	215	154.1	93	66.9	41.59	25.38	15.17	8.63	3.929
303.15 K	210	159	–	74.1	53.6	–	–	13.16	7.61	3.492
308.15 K	155.6	121.1	–	59.5	43.67	28.52	18.35	11.51	6.76	3.118
313.15 K	119.2	93.9	71.2	48.5	36.1	24.02	–	10.13	6.04	2.795
318.15 K	92.8	–	57.8	39.92	–	–	13.79	8.97	5.42	2.516
323.15 K	74.2	60.9	47.8	–	25.67	17.68	–	8	–	2.273

CCO + COP(=O)([O-])OC.Cn1cc[n+](C)c1
x1 = 1
Details	viscosity [mPa·s]
293.15 K	1.192
298.15 K	1.085
303.15 K	0.99
308.15 K	0.906
313.15 K	0.831
318.15 K	0.764
323.15 K	0.704

CCCO + COP(=O)([O-])OC.Cn1cc[n+](C)c1
x1 = 1
Details	viscosity [mPa·s]
293.15 K	2.188
298.15 K	1.974
303.15 K	1.761
308.15 K	1.575
313.15 K	1.416
318.15 K	1.273
323.15 K	1.15

CO + COP(=O)([O-])OC.Cn1cc[n+](C)c1
x1 = 1
Details	viscosity [mPa·s]
293.15 K	0.586
298.15 K	0.552
308.15 K	0.491
313.15 K	0.465
323.15 K	0.418

COP(=O)([O-])OC.Cn1cc[n+](C)c1 + CC(C)O
viscosity [mPa·s]
Details	x2 = 0	x2 = 0.0999	x2 = 0.2032	x2 = 0.301	x2 = 0.402	x2 = 0.5002	x2 = 0.6	x2 = 0.7009	x2 = 0.7997	x2 = 0.9013
293.15 K	–	–	254	173.1	–	67	38.35	21.3	11.44	5.77
298.15 K	291	253	–	129.9	75.3	–	31.53	–	9.87	5
303.15 K	210	184.2	136.2	99.8	61.1	–	26.2	15.37	8.59	4.361
308.15 K	155.6	138.2	105	78.4	49.7	35.62	22.05	–	7.54	–
313.15 K	–	–	–	–	40.99	29.78	18.74	11.54	6.64	3.359
318.15 K	92.8	82.8	–	51.5	33.95	–	16.13	–	5.89	2.969
323.15 K	74.2	66.4	54	42.88	28.66	–	14.03	8.94	5.25	–

CC(C)O + COP(=O)([O-])OC.Cn1cc[n+](C)c1
x1 = 1
Details	viscosity [mPa·s]
293.15 K	2.439
298.15 K	2.134
303.15 K	1.845
308.15 K	1.603
313.15 K	1.4
318.15 K	1.228
323.15 K	1.083

COP(=O)([O-])OC.Cn1cc[n+](C)c1 + CO
viscosity [mPa·s]
Details	x2 = 0	x2 = 0.1054	x2 = 0.2009	x2 = 0.2977	x2 = 0.3984	x2 = 0.5028	x2 = 0.6018	x2 = 0.7027	x2 = 0.8002	x2 = 0.8998
293.15 K	416	278	174.8	111.5	68	36.25	–	10.21	4.9	–
298.15 K	–	201.1	121.9	–	–	29.9	17.07	9.02	4.419	1.776
303.15 K	210	149.7	–	67.9	43.95	–	14.7	8.01	4.006	1.642
308.15 K	155.6	114.3	–	54.4	36.27	–	12.81	7.16	3.65	1.523
313.15 K	119.2	89.4	60.5	44.4	30.38	18.06	11.25	6.44	3.336	1.416
318.15 K	92.8	–	49.2	36.86	25.8	15.62	9.96	–	3.061	1.322
323.15 K	74.2	58.3	40.66	–	22.16	–	8.88	5.3	2.82	1.243
